From ChEMBL document CHEMBL1944508, “Identification of triazolopyridazinones as potent p38α inhibitors” (Bioorg Med Chem Lett, 2012)

Key:
Assay type in all cases: ADME, organism-based
[1] = Clearance in rat; details: in vivo
[2] = Clearance in Sprague-Dawley rat at 2 mg/kg, iv; parameters: dose 2 mg/kg, route intravenous; details: in vivo
[3] = Oral bioavailability in Sprague-Dawley rat at 2 mg/kg; details: in vivo
[4] = Half life in Sprague-Dawley rat at 2 mg/kg, iv; parameters: dose 2 mg/kg, route intravenous; details: in vivo
[5] = AUC (0 to infinity) in Sprague-Dawley rat at 2 mg/kg, po; parameters: time infinity, dose 2 mg/kg, route oral; details: plasma
[6] = Volume of distribution at steady state in Sprague-Dawley rat at 2 mg/kg, iv; parameters: dose 2 mg/kg, route intravenous; details: in vivo, read-out: Vdss

| Compound | clearance [1] | clearance [2] | bioavailability [3] | half-life [4] | AUC(0-inf) [5] | Vd [6] |
| --- | --- | --- | --- | --- | --- | --- |
| Cc1ccc(C(=O)NC2CC2)cc1-c1cc2cnn(-c3c(F)cccc3F)c2n(C)c1=O | 3.67 mL/min/kg | – | – | – | – | – |
| Cc1ccc(C(=O)NC2CC2)cc1-c1ccn2c(-c3c(F)cccc3F)nnc2c1 | 6.17 mL/min/kg | – | – | – | – | – |
| Cc1c(F)cc(C(=O)NC2CC2)cc1-c1cc2nnc(-c3c(F)cccc3Cl)n2n(C)c1=O | – | 8.77 mL/min/kg | 83% | 3.4 h | 3190 ng·h/mL | 2.42 L/kg |
| CCn1c(=O)c(-c2cc(C(=O)NC3CC3)ccc2C)cc2nnc(-c3c(F)cccc3Cl)n21 | – | 13.1 mL/min/kg | 55% | 2.76 h | 1420 ng·h/mL | 2.54 L/kg |
| CCn1c(=O)c(-c2cc(C(=O)NC3CC3)cc(F)c2C)cc2nnc(-c3c(F)cccc3Cl)n21 | – | 11.4 mL/min/kg | 42% | 2.76 h | 1370 ng·h/mL | 2.7 L/kg |
